This note sets out measurements from ChEMBL document CHEMBL4382214, “Antileishmanial activity of new hybrid tetrahydroquinoline and quinoline derivatives with phosphorus substituents” (Eur J Med Chem, 2019).

Data set [1] deals with Leishmania donovani. As to the kind of experiment: Inhibition of Leishmania donovani Top1B expressed in Top1B deficient Saccharomyces cerevisiae EKY3 assessed as decrease in relaxation of supercoiled pSK DNA preincubated for 15 mins followed by DNA addition and measured after 2 to 16 mins by agarose gel electrophoresis.
Data set [2] concerns Leishmania infantum. In words: Leishmanicidal activity against promastigote stage of iRFP expressing Leishmania infantum BCN150 assessed as decrease in parasite viability after 72 hrs by fluorescence assay. It is filed as functional, organism-based. The conditions noted are these: BCN150, 72 h.
The nature of data set [3]: Cytotoxicity against BALB/c mouse splenocytes assessed as reduction in cell viability by alamar blue assay. Format: cell-based, Splenocyte.
Data set [4] is described as follows: Inhibition of Leishmania donovani Top1B expressed in Top1B deficient Saccharomyces cerevisiae EKY3 assessed as decrease in relaxation of supercoiled pSK DNA preincubated for 15 mins followed by DNA addition and measured after 5 mins by agarose gel electrophoresis.
Data set [5] has as its system Leishmania infantum. In words: Leishmanicidal activity against amastigote stage of iRFP expressing Leishmania infantum BCN150 infected in BALB/c mouse splenocytes assessed as decrease in parasite viability by fluorescence assay. Format: functional, organism-based.
Data set [6] addresses T1, DNA topoisomerase 1 (Homo sapiens, UniProt P11387).
T1 sequence (P11387 whole entry): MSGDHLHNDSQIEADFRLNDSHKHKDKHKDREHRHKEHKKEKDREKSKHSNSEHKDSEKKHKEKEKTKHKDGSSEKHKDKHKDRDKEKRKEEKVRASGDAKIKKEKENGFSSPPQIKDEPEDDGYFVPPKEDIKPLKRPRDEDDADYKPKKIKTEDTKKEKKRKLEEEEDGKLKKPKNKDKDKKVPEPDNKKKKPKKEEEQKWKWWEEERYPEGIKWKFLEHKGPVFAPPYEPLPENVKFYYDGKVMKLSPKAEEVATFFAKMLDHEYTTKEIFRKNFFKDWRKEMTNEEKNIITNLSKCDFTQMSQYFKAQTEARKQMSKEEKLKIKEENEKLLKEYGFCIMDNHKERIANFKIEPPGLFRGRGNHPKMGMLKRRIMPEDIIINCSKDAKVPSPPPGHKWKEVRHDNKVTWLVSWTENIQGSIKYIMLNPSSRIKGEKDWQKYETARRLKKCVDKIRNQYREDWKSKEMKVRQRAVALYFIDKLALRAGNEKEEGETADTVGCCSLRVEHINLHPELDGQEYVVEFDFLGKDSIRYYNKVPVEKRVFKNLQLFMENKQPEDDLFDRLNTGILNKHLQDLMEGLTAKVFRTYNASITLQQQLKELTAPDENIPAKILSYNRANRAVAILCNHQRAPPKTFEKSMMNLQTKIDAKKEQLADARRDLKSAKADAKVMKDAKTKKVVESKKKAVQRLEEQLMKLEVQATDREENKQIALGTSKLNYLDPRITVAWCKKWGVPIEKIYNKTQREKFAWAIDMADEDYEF
As to the kind of experiment: Inhibition of human Top1B expressed in Top1B deficient Saccharomyces cerevisiae EKY3 assessed as decrease in relaxation of supercoiled pSK DNA preincubated for 15 mins followed by DNA addition and measured after 5 mins by agarose gel electrophoresis.

Data set [7] deals with T2, DNA topoisomerase 1 (Homo sapiens) (UniProt P11387).
T2 sequence (whole entry): T1 sequence (P11387 whole entry)
As to the kind of experiment: Inhibition of human Top1B expressed in Top1B deficient Saccharomyces cerevisiae EKY3 assessed as decrease in relaxation of supercoiled pSK DNA preincubated for 15 mins followed by DNA addition and measured after 2 to 4 mins by agarose gel electrophoresis.

For data set [8], the target named is T2, DNA topoisomerase 1 (Homo sapiens). In words: Inhibition of human Top1B expressed in Top1B deficient Saccharomyces cerevisiae EKY3 assessed as decrease in relaxation of supercoiled pSK DNA preincubated for 15 mins followed by DNA addition and measured after 8 to 16 mins by agarose gel electrophoresis.
For data set [9], the system named is Leishmania donovani. In words: Inhibition of Leishmania donovani Top1B expressed in Top1B deficient Saccharomyces cerevisiae EKY3 assessed as decrease in relaxation of supercoiled pSK DNA preincubated for 15 mins followed by DNA addition and measured after 8 to 16 mins by agarose gel electrophoresis.
Data set [10] relates to Leishmania donovani. In words: Inhibition of Leishmania donovani Top1B expressed in Top1B deficient Saccharomyces cerevisiae EKY3 assessed as decrease in relaxation of supercoiled pSK DNA preincubated for 15 mins followed by DNA addition and measured after 2 to 4 mins by agarose gel electrophoresis.
Data set [11] is described as follows: Selectivity index, ratio of CC50 for BALB/c mouse splenocytes to EC50 for amastigote stage of iRFP expressing Leishmania infantum BCN150 infected in BALB/c mouse splenocytes. It is filed as toxicity, cell-based. The conditions noted are these: read-out: Ratio CC50/EC50.
Data set [12] concerns the target T2, DNA topoisomerase 1 (Homo sapiens). As to the kind of experiment: Inhibition of human Top1B expressed in Top1B deficient Saccharomyces cerevisiae EKY3 assessed as decrease in relaxation of supercoiled pSK DNA preincubated for 15 mins followed by DNA addition and measured after 2 to 16 mins by agarose gel electrophoresis.
Data set [13] deals with Leishmania donovani. In words: Inhibition of Leishmania donovani Top1B expressed in Top1B deficient Saccharomyces cerevisiae EKY3 assessed as decrease in relaxation of supercoiled pSK DNA preincubated for 15 mins followed by DNA addition and measured after 4 to 16 mins by agarose gel electrophoresis.
Data set [14] relates to Leishmania donovani. As to the kind of experiment: Inhibition of Leishmania donovani Top1B expressed in Top1B deficient Saccharomyces cerevisiae EKY3 assessed as decrease in relaxation of supercoiled pSK DNA preincubated for 15 mins followed by DNA addition and measured after 2 mins by agarose gel electrophoresis.

The source made the active and inactive calls. The calls are words filed in the database; no cut-off is given here. Some results are limits rather than exact numbers.

Broadly, the EC50 is the concentration needed to bring the measured effect to its halfway point. The term CC50 denotes the concentration at which the toxic effect on the cells reaches its halfway point. As a reminder, the IC50 is the concentration needed to halve the response being measured. `Fc1ccc(-c2cc(-c3ccc(F)cc3)c3cccc(P(=S)(c4ccccc4)c4ccccc4)c3n2)cc1`: the inhibition result in data set [1] is “inactive”. Besides, the 50% effective concentration (EC50) was 11 µM in data set [2] and above 10 µM in data set [5]. Moreover, the CC50 in data set [3] came out at 92.1 µM. The IC50 entry in [4] and in data set [6] was “Not Active” in each case.
As for `Fc1ccc(-c2cc(-c3ccc(C(F)(F)F)cc3)nc3c(P(=S)(c4ccccc4)c4ccccc4)cccc23)cc1`, the EC50 in data set [2] was 8.83 µM; in data set [5] it was above 10 µM. In [3], the CC50 came to 89.7 µM. Moreover, the results for the IC50 in [4] (read-out: IC50) and in [6] (read-out: IC50) were 34.3 µM and 27.4 µM, respectively. The inhibition result in data set [7] and in [10] was “Active” in each case. Besides, the inhibition result in data set [8] and in data set [9] was “inactive” throughout.
For `O=P(c1ccccc1)(c1ccccc1)c1cccc2c(-c3ccc(F)cc3)cc(-c3ccccc3)nc12`, the inhibition entry in data set [1] was “inactive”. The values for the EC50 in [2] and in data set [5] were 6.01 µM and 1.39 µM, respectively. In addition, the CC50 in [3] turned out to be 71 µM. In addition, the half-maximal inhibitory concentration (IC50) result in [4] and in data set [6] was “Not Active” each time. Moreover, the selectivity ratio in data set [11] was 51.1.
Regarding `O=P(c1ccccc1)(c1ccccc1)c1cccc2c(-c3ccccc3)cc(-c3ccc4ccccc4c3)nc12`, the inhibition result in data set [1] was “inactive”. The half-maximal effective concentration (EC50) in data set [2] amounted to 4.91 µM; in data set [5], 4.14 µM. Moreover, in [3], the CC50 stood at 57.1 µM. The IC50 entry in data set [4] and in data set [6] was “Not Active” each time. For the same compound, the selectivity ratio in data set [11] came out at 13.8.
Take `Cc1ccc([C@H]2C[C@@H](c3ccc(F)cc3)Nc3c2cccc3P(c2ccccc2)c2ccccc2)cc1` (relative stereo): the inhibition result in data set [1] and in data set [12] was “Active” each time. Also, the results for the EC50 in [2] and in [5] were 20.9 µM and 1.79 µM, respectively. Also, in data set [3], the CC50 worked out at 47 µM. Besides, the results for the 50% inhibitory concentration (IC50) in data set [4] (read-out: IC50) and in [6] (read-out: IC50) were 47.9 µM and 44.8 µM, respectively. Besides, the selectivity ratio in [11] stood at 26.2.
`COc1ccc([C@@H]2C[C@H](c3ccc(C)cc3)c3cccc(P(c4ccccc4)c4ccccc4)c3N2)cc1` (relative stereo): the inhibition result in data set [1] and in data set [12] was “Active” each time. In addition, the values for the concentration for a half-maximal effect (EC50) in data set [2] and in data set [5] were 27.7 µM and 5.96 µM, respectively. For the same compound, in [3], the CC50 is above 50 µM. The IC50 in [4] (read-out: IC50) stood at 23.6 µM; in data set [6] (read-out: IC50), 84.6 µM. In addition, the selectivity ratio in [11] is above 8.4.
With `COc1ccccc1[C@@H]1C[C@H](c2ccccc2)c2cccc(P(=O)(c3ccccc3)c3ccccc3)c2N1` (relative stereo), the inhibition result in data set [1] is “inactive”. Also, the EC50 in data set [2] worked out at 9.39 µM; in data set [5] it was 0.98 µM. Further, the CC50 in data set [3] amounted to 34.2 µM. Moreover, the IC50 entry in data set [4] and in data set [6] was “Not Active” throughout. Further, the selectivity ratio in data set [11] was 34.9.
In the case of `COc1ccc([C@@H]2C[C@H](c3ccccc3)c3cccc(P(=S)(c4ccccc4)c4ccccc4)c3N2)cc1` (relative stereo), the half-maximal effective concentration (EC50) in data set [2] turned out to be 10.7 µM; in data set [5] it was 0.61 µM. Further, the cytotoxic concentration (CC50) in data set [3] is 34.7 µM. Besides, the figures for the IC50 in data set [4] (read-out: IC50) and in data set [6] were 93.7 µM and “Not Active”, respectively. Moreover, in data set [11], the selectivity ratio was 56.9. In [9], the inhibition entry is “inactive”. In addition, the inhibition entry in [10] was “Active”.
On to `O=[N+]([O-])c1ccc([C@@H]2C[C@H](c3ccccc3)c3cccc(P(=S)(c4ccccc4)c4ccccc4)c3N2)cc1` (relative stereo), for which the inhibition entry in data set [1] is “inactive”. The results for the EC50 in data set [2] and in data set [5] were 36.4 µM and 2.73 µM, respectively. For the same compound, the cytotoxic concentration (CC50) in data set [3] is 57 µM. For the same compound, the concentration for half-maximal inhibition (IC50) result in [4] and in data set [6] was “Not Active” each time. Besides, the selectivity ratio in [11] stood at 20.9.
With `O=P(c1ccccc1)(c1ccccc1)c1cccc2c1N[C@H](c1ccc(F)c(F)c1)C[C@@H]2c1ccc(F)cc1` (relative stereo), the inhibition result in data set [1] was “inactive”. Besides, the 50% effective concentration (EC50) in [2] came to 6.15 µM; in data set [5], 1.46 µM. Besides, the cytotoxic concentration (CC50) in data set [3] turned out to be 63.7 µM. The IC50 entry in data set [4] and in data set [6] was “Not Active” in each case. For the same compound, the selectivity ratio in data set [11] worked out at 43.6.
Turning to `Cc1ccc([C@H]2C[C@@H](c3ccc(F)cc3)Nc3c2cccc3P(=O)(c2ccccc2)c2ccccc2)cc1` (relative stereo), the inhibition entry in [1] is “inactive”. The 50% effective concentration (EC50) stood at 7.1 µM in [2] and 1.85 µM in data set [5]. The 50% cytotoxic concentration (CC50) in [3] was 13.8 µM. The 50% inhibitory concentration (IC50) entry in data set [4] and in [6] was “Not Active” in each case. Moreover, the selectivity ratio in data set [11] stood at 7.47.
Regarding `Fc1ccc([C@H]2C[C@@H](c3ccccc3)Nc3c2cccc3P(c2ccccc2)c2ccccc2)cc1` (relative stereo), the inhibition result in data set [1] and in [12] was “Active” throughout. The values for the EC50 in [2] and in [5] were 3.14 µM and 1.75 µM, respectively. For the same compound, the CC50 in data set [3] was 90.6 µM. Besides, the values for the half-maximal inhibitory concentration (IC50) in [4] (read-out: IC50) and in data set [6] (read-out: IC50) were 54.2 µM and 42.2 µM, respectively. For the same compound, the selectivity ratio in data set [11] came to 51.8.
In the case of `C[C@@H]1[C@H](O)[C@@H](C)/C=C/C=C/C=C/C=C/C=C/C=C/C=C/[C@H](O[C@@H]2O[C@H](C)[C@@H](O)[C@H](N)[C@@H]2O)C[C@@H]2O[C@](O)(C[C@@H](O)C[C@@H](O)[C@H](O)CC[C@@H](O)C[C@@H](O)CC(=O)O[C@H]1C)C[C@H](O)[C@H]2C(=O)O` [AMPHOTERICIN B], the 50% effective concentration (EC50) in data set [2] turned out to be 0.77 µM; in data set [5], 0.32 µM. Besides, the CC50 in data set [3] is above 20 µM. In addition, the selectivity ratio in data set [11] came to 62.5.
As to `CC[C@@]1(O)C(=O)OCc2c1cc1n(c2=O)Cc2cc3ccccc3nc2-1` [CAMPTOTHECIN], in [13], the inhibition result is “inactive”. Also, the IC50 result in data set [4] and in data set [6] was “Not Active” each time. Further, in data set [14], the inhibition result was “Active”.
